Results as given in patent US9890175B2, “Taxane compound, and preparation method and use thereof” (JIANGSU TASLY DIYI PHARMACEUTICAL CO., LTD., priority 2013, dated 2018).
Read-outs that look alike come from different tables or passages of the source.

What was measured:
LN-18 = test: MTT proliferation inhibition, LN-18; assay type: cell-based; conditions: Homo sapiens, LN-18, read-out: Proliferation inhibition rate, LN-18 Gastric canser
Excerpt: (§1) 1. Cytotoxicity Assay Using Human Tumor Cell Lines
(§2) Paclitaxel was used as the positive drug.

[1] = test system: A549 non-small cell lung cancer; test: MTT proliferation inhibition, A549; assay type: cell-based; conditions: Homo sapiens, A549, read-out: Proliferation inhibition rate, A549 Non-small cell lung cancer
Excerpt: as §1, §2

HCT 116 colon cancer = test: MTT proliferation inhibition, HCT 116; assay type: cell-based; conditions: Homo sapiens, HCT-116, read-out: Proliferation inhibition rate, HCT 116 Colon cancer
Excerpt: as §1, §2

LNCaP prostate cancer = test: MTT proliferation inhibition, LNCaP; assay type: cell-based; conditions: Homo sapiens, read-out: Proliferation inhibition rate, LNCaP Prostate cancer
Excerpt: as §1, §2

Du145 prostate cancer = test: MTT proliferation inhibition, Du145; assay type: cell-based; conditions: Homo sapiens, DU-145, read-out: Proliferation inhibition rate, DU145 Prostate cancer
Excerpt: as §1, §2

B16 melanoma = test: MTT proliferation inhibition, B16; assay type: cell-based; conditions: B16, read-out: Proliferation inhibition rate, B16 Melanoma
Excerpt: as §1, §2

[2] = test system: MDA-MB-436 breast cancer cells; test: MTT proliferation inhibition, MDA-MB-436; assay type: cell-based; conditions: Homo sapiens, MDA-MB-436, read-out: Proliferation inhibition rate, MDA-MB-436 Breast cancer
Excerpt: as §1, §2

K562 leukemia = test: MTT proliferation inhibition, K562; assay type: cell-based; conditions: Homo sapiens, K562, read-out: Proliferation inhibition rate, K562 Leukemia
Excerpt: as §1, §2

[3] = Caco-2 bidirectional transport, efflux ratio; conditions: human, Caco-2
Description: (§3) Human-derived colorectal adenocarcinoma cell line Caco-2 cell monolayer model was used to study the bidirectional transport of the target compounds from the apical (AP) side to the basolateral (BL) side and from BL side to AP side. HPLC was used for quantitative analysis to calculate transport parameters, apparent permeability coefficient (Papp) and the efflux ratio.

BGC-823 gastric cancer = test: MTT proliferation inhibition, BGC-823; assay type: cell-based; conditions: Homo sapiens, BGC-823, read-out: Proliferation inhibition rate, BGC-823 Gastric cancer
Excerpt: as §1, §2

[4] = test system: MCF-7 breast cancer cells; test: MTT proliferation inhibition, MCF-7; assay type: cell-based; conditions: Homo sapiens, MCF7, read-out: Proliferation inhibition rate, MCF-7 Breast cancer
Excerpt: as §1, §2

[5] = Caco-2 cell monolayer membrane transport assay (Papp and recovery); assay type: in vitro ADME; conditions: human, Caco-2, Caco-2, A-B
Description: Caco-2 Cell Monolayer Membrane Transport Assay
as §3

HT-29 colon cancer = test: MTT proliferation inhibition, HT-29; assay type: cell-based; conditions: Homo sapiens, HT-29, read-out: Proliferation inhibition rate, HT29 Colon cancer
Excerpt: as §1, §2

A375 melanoma = test: MTT proliferation inhibition, A375; assay type: cell-based; conditions: Homo sapiens, A-375, read-out: Proliferation inhibition rate, A375 Melanoma
Excerpt: as §1, §2

HL-60 leukemia = test: MTT proliferation inhibition, HL-60; assay type: cell-based; conditions: Homo sapiens, HL-60, read-out: Proliferation inhibition rate, HL60 Leukemia
Excerpt: as §1, §2

Hela cervical cancer = test: MTT proliferation inhibition, HeLa; assay type: cell-based; conditions: Homo sapiens, read-out: Proliferation inhibition rate, HeLa Uterin cancer
Excerpt: as §1, §2

[6] = test system: NCI-H460 non-small cell lung cancer; test: MTT proliferation inhibition, NCI-H460; assay type: cell-based; conditions: Homo sapiens, NCI-H460, read-out: Proliferation inhibition rate, NCI-H460 Non-small cell lung cancer
Excerpt: as §1, §2

A2780 ovarian cancer = test: MTT proliferation inhibition, A2780; assay type: cell-based; conditions: Homo sapiens, A2780, read-out: Proliferation inhibition rate, A2780 Ovarian cancer
Excerpt: as §1, §2

[7] = test system: breast cancer cell line MCF-7; test: IC50 on breast cancer cell line MCF-7; assay type: cell-based; conditions: Homo sapiens, MCF7, 72 h, read-out: MCF-7 (IC50, nM)
Description: From the activity evaluation data of the above-mentioned preliminary screen, it can be seen that the series of taxanes derivatives synthesized in the present invention have activity. Afterward, the compounds are investigated to examine their IC50 values on breast cancer cell line MCF-7. […] Experiments for each compound were independently repeated for three times and multiple holes were used in each experiment. The exposure time of drugs was 72 hours.

[8] = Mean, read-out: Recovery rate in mass, Mean
[9] = Sample-01, read-out: Papp A-B, Sample-01
[10] = Sample-01, read-out: Recovery rate in mass, Sample-01
[11] = Sample-02, read-out: Papp A-B, Sample-02
[12] = Sample-02, read-out: Recovery rate in mass, Sample-02

| SMILES | inhibition at 1 µM (LN-18) | inhibition at 1 µM [1] | inhibition at 1 µM (HCT 116 colon cancer) | inhibition at 1 µM (LNCaP prostate cancer) | inhibition at 1 µM (Du145 prostate cancer) | inhibition at 1 µM (B16 melanoma) | inhibition at 1 µM [2] | inhibition at 1 µM (K562 leukemia) | inhibition at 1 µM (BGC-823 gastric cancer) | inhibition at 1 µM [4] | recovery [5, 8] | Papp A→B [5, 9] | recovery [5, 10] | Papp A→B [5, 11] | recovery [5, 12] | inhibition at 1 µM (HT-29 colon cancer) | inhibition at 1 µM (A375 melanoma) | inhibition at 1 µM (HL-60 leukemia) | inhibition at 1 µM (Hela cervical cancer) | inhibition at 1 µM [6] | further results |
| --- | --- | --- | --- | --- | --- | --- | --- | --- | --- | --- | --- | --- | --- | --- | --- | --- | --- | --- | --- | --- | --- |
| CO[C@H]1C(=O)[C@]2(C)[C@@H](OC)C[C@H]3OC[C@@]3(OC(C)=O)[C@H]2[C@H](OC(=O)c2ccccc2)[C@]23OC(=O)O[C@H]2[C@H](OC(=O)[C@H](O)[C@@H](NC(=O)N(C)C)c2ccccc2)C(C)=C1C3(C)C [PCMI-03] | 95.3% | 68.6% | 58.3% | 82.6% | 85% | 78.2% | 80.1% | 93.6% | 92.3% | 95.3% | 61.7% | 3.45 ×10⁻⁶ cm/s | 65.1% | 3.89 ×10⁻⁶ cm/s | 58.2% | 88.5% | 88.6% | 95.7% | 99.4% | 85.3% | Papp A→B [3]: 2.97 ×10⁻⁶ cm/s; Papp B→A [3]: 28.6 ×10⁻⁶ cm/s; efflux ratio [3]: 9.62; Papp A→B ([5]; Mean, read-out: Papp A-B, Mean): 3.67 ×10⁻⁶ cm/s; inhibition at 1 µM (A2780 ovarian cancer): 95.1%; IC50 [7]: 2.89 ± 0.1 nM |
| CO[C@H]1C(=O)[C@]2(C)[C@@H](OC)C[C@H]3OC[C@@]3(OC(C)=O)[C@H]2[C@H](OC(=O)c2ccccc2)[C@]23OC(=O)O[C@H]2[C@H](OC(=O)[C@H](O)[C@@H](NC(=O)OC(C)(C)C)c2ccccn2)C(C)=C1C3(C)C [PCMI-04] | 91.8% | 66.3% | 55% | 79.2% | 83.9% | 73.2% | 79.4% | 91.5% | 89.8% | 101% | 75.9% | 4.46 ×10⁻⁶ cm/s | 85.2% | 2.86 ×10⁻⁶ cm/s | 66.5% | 88.3% | 82.2% | 95.8% | 98.3% | 81.8% | Papp A→B [3]: 3.21 ×10⁻⁶ cm/s; Papp B→A [3]: 26.4 ×10⁻⁶ cm/s; efflux ratio [3]: 8.24; inhibition at 1 µM (A2780 ovarian cancer): 94.7%; IC50 [7]: 3.4 ± 0.14 nM |
| CO[C@H]1C[C@H]2OC[C@@]2(OC(C)=O)[C@H]2[C@H](OC(=O)c3ccccc3)[C@]34OC(=O)O[C@H]3[C@H](OC(=O)[C@H](O)[C@@H](NC(=O)OC(C)(C)C)c3ccccn3)C(C)=C([C@@H](OC(=O)N(C)C)C(=O)[C@]12C)C4(C)C [PCMI-09] | 95% | 75.8% | 65.5% | 86.2% | 90.3% | 81.7% | 81.3% | 92.6% | 94.9% | 89.8% | 76.5% | 5.78 ×10⁻⁶ cm/s | 70.4% | 3.59 ×10⁻⁶ cm/s | 82.6% | 87.8% | 96.9% | 98.5% | 101% | 85.8% | Papp A→B [3]: 3.56 ×10⁻⁶ cm/s; Papp B→A [3]: 29 ×10⁻⁶ cm/s; efflux ratio [3]: 8.14; inhibition at 1 µM (A2780 ovarian cancer): 95.6%; IC50 [7]: 14.31 ± 0.12 nM |
| CO[C@H]1C(=O)[C@]2(C)[C@@H](OC(=O)N(C)C)C[C@H]3OC[C@@]3(OC(C)=O)[C@H]2[C@H](OC(=O)c2ccccc2)[C@]23OC(=O)O[C@H]2[C@H](OC(=O)[C@H](O)[C@@H](NC(=O)OC(C)(C)C)c2ccccn2)C(C)=C1C3(C)C [PCMI-15] | 95.7% | 74.6% | 68.3% | 86.7% | 90.8% | 80.8% | 82% | 93.2% | 95% | 95.5% | 79.3% | 2.14 ×10⁻⁶ cm/s | 83.7% | 2.78 ×10⁻⁶ cm/s | 74.8% | 88.7% | 97.9% | 97.8% | 101% | 86% | inhibition at 1 µM (A2780 ovarian cancer): 95.7%; IC50 [7]: 18.2 ± 0.24 nM |
| CO[C@H]1C(=O)[C@]2(C)[C@@H](OC(=O)N(C)C)C[C@H]3OC[C@@]3(OC(C)=O)[C@H]2[C@H](OC(=O)c2ccccc2)[C@]23OC(=O)O[C@H]2[C@H](OC(=O)[C@H](O)[C@H](CC(C)C)NC(=O)OC(C)(C)C)C(C)=C1C3(C)C [PCMI-16] | 95.2% | 74.7% | 67.1% | 86.8% | 91.4% | 83.1% | 81.2% | 95% | 95.3% | 97.2% | 33.1% | 1.41 ×10⁻⁶ cm/s | 32.7% | 1.87 ×10⁻⁶ cm/s | 33.5% | 89.2% | 96.3% | 97.8% | 102% | 87.2% | Papp A→B ([5]; Mean, read-out: Papp A-B, Mean): 1.64 ×10⁻⁶ cm/s; inhibition at 1 µM (A2780 ovarian cancer): 96.1%; IC50 [7]: 21.17 ± 0.21 nM |
| COC(=O)O[C@H]1C[C@H]2OC[C@@]2(OC(C)=O)[C@H]2[C@H](OC(=O)c3ccccc3)[C@]34OC(=O)O[C@H]3[C@H](OC(=O)[C@H](O)[C@@H](NC(=O)OC(C)(C)C)c3ccccn3)C(C)=C([C@@H](OC)C(=O)[C@]12C)C4(C)C [PCMI-18] | 94.7% | 78.7% | 68.3% | 84.6% | 89.7% | 81.2% | 82.3% | 94.5% | 94.3% | 96.2% | 88.3% | 2.65 ×10⁻⁶ cm/s | 85.6% | 2.33 ×10⁻⁶ cm/s | 90.9% | 85.2% | 95.1% | 97.8% | 98.8% | 88.6% | Papp A→B ([5]; Mean, read-out: Papp A-B, Mean): 2.49 ×10⁻⁶ cm/s; inhibition at 1 µM (A2780 ovarian cancer): 95.7%; IC50 [7]: 4.12 ± 0.16 nM |
| CCSC(=O)O[C@H]1C[C@H]2OC[C@@]2(OC(C)=O)[C@H]2[C@H](OC(=O)c3ccccc3)[C@]34OC(=O)O[C@H]3[C@H](OC(=O)[C@H](O)[C@@H](NC(=O)OC(C)(C)C)c3ccccc3)C(C)=C([C@@H](OC)C(=O)[C@]12C)C4(C)C [PCMI-21] | 94.7% | 74.9% | 70.1% | 87.4% | 90.6% | 75.8% | 83.1% | 95% | 93.3% | 88.7% | 72% | 2.32 ×10⁻⁶ cm/s | 76.6% | 2.58 ×10⁻⁶ cm/s | 67.5% | 87.7% | 96.7% | 96.5% | 99.5% | 85.5% | Papp A→B ([5]; Mean, read-out: Papp A-B, Mean): 2.45 ×10⁻⁶ cm/s; inhibition at 1 µM (A2780 ovarian cancer): 96.4%; IC50 [7]: 3.46 ± 0.16 nM |
